Test results from patent publication US6607890B1, “Mismatch-recognizing molecules” (Japan Science and Technology Corporation, priority 1999, dated 2003).

What was measured:
Assay type in all cases: binding
[1] = system: normal G-C base pair; assay: DNase I footprinting titration on 5′-32P labeled 52-mer double-stranded DNA, normal G-C site; conditions: concentration increased from 0 up to 500 μM, FIG. 1
Description: (§1) Accordingly, it was examined whether such a compound having two 1,8-naphthylidien moieties can be incorporated into chains of a nucleic acid by constructing a paring with each mismatched guanine in a case when mismatched base pairing of guanine—guanine exists in a double-stranded nucleic acid. 52-mer double-stranded DNA labeled with 5′-^32P having a GC base pair, a GA mismatched base pair and a GG mismatched base pair in the double-stranded DNA was prepared. The partial sequences of the corresponding parts are illustrated as follows.
(§2) Using this double-stranded DNA, an inhibited position of DNA cleavage by DNase I was analyzed by means of DNase I (DNA hydrolase) footprinting titration in the presence of the compound of the formula (III) at various concentrations.
Cleavage by DNase I (DNA hydrolase) is shown in black and inhibition in a position of the cleavage by DNase is shown in white.
(§3) A double-stranded DNA was prepared by hybridizing 5′-end ^32P labeled 52-mer DNA to form mismatched base pairs with G-G and G-A (refer to the right figures in FIG. 1).
Various concentrations of the compound obtained in example 1 were added to the double-stranded DNA, and analyzed by DNA footprinting using DNase I. […]

[2] = system: G-G mismatched base pair; assay: DNase I footprinting titration on 5′-32P labeled 52-mer double-stranded DNA, G-G mismatched site
Description: as §1, §2
(§4) FIG. 2 is a graph showing a relationship between an intensity of cleaved band and a concentration of added naphthyriidine in FIG. 1. […] In FIG. 2, the abscissa indicates concentration (M) of the compound of the formula (III) added. In FIG. 2, black circle (●) in the graph indicates mismatched site of G-G, and black triangle (▴) indicates mismatched site of G-A.
as §3
(§5) Various concentrations of the compound obtained in example 1 were added to the double-stranded DNA, and analyzed by DNA footprinting using DNase I.
(§6) The double-stranded DNA (<4 nM strand concentration) was incubated with the compound obtained in example 1, which was adjusted to various concentrations with tris-HCl buffer (10 mM, pH 7.6) containing NaCl (100 mM) and MgCl2 (5 mM), at 4° C. for 12 hours. 0.2 U DNase I (DNA hydrolase) was added thereto and incubated at 25° C. for […]. DNA was recovered by mans of ethanol precipitation and electrophoresed using a gel containing 12% polyacrylamide and 7M urea.

[3] = system: G-A mismatched base pair; assay: DNase I footprinting titration on 5′-32P labeled 52-mer double-stranded DNA, G-A mismatched site
Description: as §1, §2, §4, §3, §5, §6

[4] = calculated from DNase I footprinting titration (FIG. 2)

Structure (SMILES): Cc1ccc2ccc(NC(=O)CCNCCC(=O)Nc3ccc4ccc(C)nc4n3)nc2n1 [formula (III), dinaphthylidinamide]
- effect on DNase I cleavage at the normal G-C base pairing [1]: cleavage by DNase I occurs
- concentration at which the cleavage in the G-G mismatched site is inhibited almost completely ([2]; DNase I cleavage, FIG. 2): ≥ 10^−5 M
- ratio of both binding constants [(Ka (GGmis))/(Ka (GAmis))] ([2]; G-G versus G-A mismatch): 696
- binding constant to the mismatched base G-G [Ka (GGmis)] [2, 4]: 1.13e+07 M⁻¹
- concentration from which the inhibitory action against cleavage initiates in the G-A mismatched site ([3]; DNase I cleavage, FIG. 2): approximately 10^−6 M
- inhibition of the cleavage in the G-A mismatched site ([3]; at around (500 μM) compound): about 90%
- binding constant to the mismatched base G-A [Ka (GAmis)] [3, 4]: 16300 M⁻¹
